Assay results from PubChem BioAssay (NCI).
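Grown in 96-well plates, cells were treated for 48 hours with each compound at five concentrations. Insufficient inhibition: endpoint recorded as highest concentration tested. GI50 = concentration required for 50% inhibition of growth. TGI: total growth inhibition.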

What was measured:
Assay in all cases: NCI-60 cell line screen, 48 h
[1] = tested on: 786-0 renal
[2] = tested on: A498 renal
[3] = tested on: A549 NSCLC
[4] = tested on: ACHN renal
[5] = tested on: BT-549 breast
[6] = tested on: CAKI-1 renal
[7] = tested on: CCRF-CEM leukemia
[8] = tested on: COLO 205 colon
[9] = tested on: DU-145 prostate
[10] = tested on: HCC-2998 colon
[11] = tested on: HCT-116 colon
[12] = tested on: HCT-15 colon
[13] = tested on: HL-60(TB) leukemia
[14] = tested on: HOP-62 NSCLC
[15] = tested on: HOP-92 NSCLC
[16] = tested on: HS 578T breast
[17] = tested on: HT29 colon
[18] = tested on: IGROV1 ovarian
[19] = tested on: K-562 leukemia
[20] = tested on: KM12 colon
[21] = tested on: LOX IMVI melanoma
[22] = tested on: MALME-3M melanoma
[23] = tested on: MCF7 breast
[24] = tested on: MDA-MB-231 breast
[25] = tested on: MDA-MB-435
[26] = tested on: MOLT-4 leukemia
[27] = tested on: NCI-H226 lung
[28] = tested on: NCI-H23 lung
[29] = tested on: NCI-H460 lung
[30] = tested on: NCI-H522 lung
[31] = tested on: NCI/ADR-RES ovarian
[32] = tested on: OVCAR-3 ovarian
[33] = tested on: OVCAR-4 ovarian
[34] = tested on: OVCAR-5 ovarian
[35] = tested on: OVCAR-8 ovarian
[36] = tested on: PC-3 prostate
[37] = tested on: RPMI-8226 leukemia
[38] = tested on: RXF 393 renal
[39] = tested on: SF-268 CNS
[40] = tested on: SF-295 CNS
[41] = tested on: SF-539 CNS
[42] = tested on: SK-MEL-2 melanoma
[43] = tested on: SK-MEL-28 melanoma
[44] = tested on: SK-MEL-5 melanoma
[45] = tested on: SK-OV-3 ovarian
[46] = tested on: SN12C renal
[47] = tested on: SNB-19 CNS
[48] = tested on: SNB-75 CNS
[49] = tested on: SR leukemia
[50] = tested on: SW-620 colon
[51] = tested on: T-47D breast
[52] = tested on: TK-10 renal
[53] = tested on: U251 CNS
[54] = tested on: UACC-257 melanoma
[55] = tested on: UACC-62 melanoma
[56] = tested on: UO-31 renal
[57] = tested on: EKVX NSCLC

Cn1c(C(=O)c2cccc3ccccc23)nc2ccccc21
GI50 [1]: > 100 µM
TGI [1]: > 100 µM
GI50 [2]: 8.59 µM
TGI [2]: > 100 µM
GI50 [3]: > 100 µM
TGI [3]: > 100 µM
GI50 [4]: > 100 µM
TGI [4]: > 100 µM
GI50 [5]: > 100 µM
TGI [5]: > 100 µM
GI50 [6]: 61 µM
TGI [6]: > 100 µM
GI50 [7]: > 100 µM
TGI [7]: > 100 µM
GI50 [8]: > 100 µM
TGI [8]: > 100 µM
GI50 [9]: > 100 µM
TGI [9]: > 100 µM
GI50 [10]: > 100 µM
TGI [10]: > 100 µM
GI50 [11]: > 100 µM
TGI [11]: > 100 µM
GI50 [12]: > 100 µM
TGI [12]: > 100 µM
GI50 [13]: > 100 µM
TGI [13]: > 100 µM
GI50 [14]: > 100 µM
TGI [14]: > 100 µM
GI50 [15]: 35.9 µM
TGI [15]: > 100 µM
GI50 [16]: > 100 µM
TGI [16]: > 100 µM
GI50 [17]: > 100 µM
TGI [17]: > 100 µM
GI50 [18]: > 100 µM
TGI [18]: > 100 µM
GI50 [19]: > 100 µM
TGI [19]: > 100 µM
GI50 [20]: > 100 µM
TGI [20]: > 100 µM
GI50 [21]: > 100 µM
TGI [21]: > 100 µM
GI50 [22]: > 100 µM
TGI [22]: > 100 µM
GI50 [23]: 3.81 µM
TGI [23]: > 100 µM
GI50 [24]: > 100 µM
TGI [24]: > 100 µM
GI50 [25]: > 100 µM
TGI [25]: > 100 µM
GI50 [26]: > 100 µM
TGI [26]: > 100 µM
GI50 [27]: > 100 µM
TGI [27]: > 100 µM
GI50 [28]: > 100 µM
TGI [28]: > 100 µM
GI50 [29]: > 100 µM
TGI [29]: > 100 µM
GI50 [30]: > 100 µM
TGI [30]: > 100 µM
GI50 [31]: > 100 µM
TGI [31]: > 100 µM
GI50 [32]: > 100 µM
TGI [32]: > 100 µM
GI50 [33]: 35.1 µM
TGI [33]: > 100 µM
GI50 [34]: > 100 µM
TGI [34]: > 100 µM
GI50 [35]: > 100 µM
TGI [35]: > 100 µM
GI50 [36]: > 100 µM
TGI [36]: > 100 µM
GI50 [37]: > 100 µM
TGI [37]: > 100 µM
GI50 [38]: > 100 µM
TGI [38]: > 100 µM
GI50 [39]: > 100 µM
TGI [39]: > 100 µM
GI50 [40]: > 100 µM
TGI [40]: > 100 µM
GI50 [41]: > 100 µM
TGI [41]: > 100 µM
GI50 [42]: > 100 µM
TGI [42]: > 100 µM
GI50 [43]: > 100 µM
TGI [43]: > 100 µM
GI50 [44]: > 100 µM
TGI [44]: > 100 µM
GI50 [45]: > 100 µM
TGI [45]: > 100 µM
GI50 [46]: > 100 µM
TGI [46]: > 100 µM
GI50 [47]: > 100 µM
TGI [47]: > 100 µM
GI50 [48]: 15.3 µM
TGI [48]: > 100 µM
GI50 [49]: > 100 µM
TGI [49]: > 100 µM
GI50 [50]: > 100 µM
TGI [50]: > 100 µM
GI50 [51]: 22 µM
TGI [51]: > 100 µM
GI50 [52]: > 100 µM
TGI [52]: > 100 µM
GI50 [53]: > 100 µM
TGI [53]: > 100 µM
GI50 [54]: > 100 µM
TGI [54]: > 100 µM
GI50 [55]: > 100 µM
TGI [55]: > 100 µM
GI50 [56]: 46.1 µM
TGI [56]: > 100 µM

C[C@H]1CN(C2COC2)CCN1c1ccc(Nc2cc(-c3ccnc(N4CCn5c(cc6c5CC(C)(C)C6)C4=O)c3CO)cn(C)c2=O)nc1
GI50 [1]: 19.5 µM
TGI [1]: > 100 µM
GI50 [2]: 10.3 µM
TGI [2]: 33.9 µM
GI50 [3]: 56.8 µM
TGI [3]: > 100 µM
GI50 [4]: 30.2 µM
TGI [4]: > 100 µM
GI50 [5]: 17.7 µM
TGI [5]: 55.1 µM
GI50 [6]: 27.9 µM
TGI [6]: > 100 µM
GI50 [7]: 21.4 µM
TGI [7]: > 100 µM
GI50 [8]: 27.1 µM
TGI [8]: > 100 µM
GI50 [9]: 45.9 µM
TGI [9]: > 100 µM
GI50 [57]: > 100 µM
TGI [57]: > 100 µM
GI50 [10]: 49.9 µM
TGI [10]: > 100 µM
GI50 [11]: 38.4 µM
TGI [11]: > 100 µM
GI50 [12]: 47 µM
TGI [12]: > 100 µM
GI50 [13]: 16.6 µM
TGI [13]: 47.2 µM
GI50 [14]: 39.1 µM
TGI [14]: > 100 µM
GI50 [15]: 12.6 µM
TGI [15]: 64.6 µM
GI50 [16]: 27.7 µM
TGI [16]: > 100 µM
GI50 [17]: 23.8 µM
TGI [17]: > 100 µM
GI50 [18]: 19.7 µM
TGI [18]: > 100 µM
GI50 [20]: 56.8 µM
TGI [20]: > 100 µM
GI50 [21]: 29.8 µM
TGI [21]: > 100 µM
GI50 [22]: > 100 µM
TGI [22]: > 100 µM
GI50 [23]: 28.7 µM
TGI [23]: > 100 µM
GI50 [24]: 26.1 µM
TGI [24]: > 100 µM
GI50 [25]: 26.4 µM
TGI [25]: > 100 µM
GI50 [26]: 14.3 µM
TGI [26]: > 100 µM
GI50 [27]: 19.6 µM
TGI [27]: 46.5 µM
GI50 [28]: > 100 µM
TGI [28]: > 100 µM
GI50 [29]: 61.1 µM
TGI [29]: > 100 µM
GI50 [30]: 56.3 µM
TGI [30]: > 100 µM
GI50 [31]: 47.8 µM
TGI [31]: > 100 µM
GI50 [32]: 37.4 µM
TGI [32]: > 100 µM
GI50 [33]: 22.4 µM
TGI [33]: > 100 µM
GI50 [34]: 73 µM
TGI [34]: > 100 µM
GI50 [35]: 54.3 µM
TGI [35]: > 100 µM
GI50 [36]: 36.6 µM
TGI [36]: > 100 µM
GI50 [37]: 13.1 µM
TGI [37]: 60.7 µM
GI50 [38]: 40.6 µM
TGI [38]: > 100 µM
GI50 [39]: 29.5 µM
TGI [39]: > 100 µM
GI50 [40]: 68.6 µM
TGI [40]: > 100 µM
GI50 [41]: 21.4 µM
TGI [41]: 66.9 µM
GI50 [42]: 74.2 µM
TGI [42]: > 100 µM
GI50 [43]: 39.8 µM
TGI [43]: > 100 µM
GI50 [44]: 31.2 µM
TGI [44]: > 100 µM
GI50 [45]: > 100 µM
TGI [45]: > 100 µM
GI50 [46]: 49.9 µM
TGI [46]: > 100 µM
GI50 [47]: 51.2 µM
TGI [47]: > 100 µM
GI50 [48]: 15.5 µM
TGI [48]: > 100 µM
GI50 [49]: 23.1 µM
TGI [49]: > 100 µM
GI50 [50]: 47.8 µM
TGI [50]: > 100 µM
GI50 [51]: 19.2 µM
TGI [51]: > 100 µM
GI50 [52]: 38.7 µM
TGI [52]: > 100 µM
GI50 [53]: 44.8 µM
TGI [53]: > 100 µM
GI50 [54]: 27.6 µM
TGI [54]: 58.1 µM
GI50 [55]: 23.2 µM
TGI [55]: 82.3 µM
GI50 [56]: 21.7 µM
TGI [56]: > 100 µM
